{
  "source": "patent US20250172566A1",
  "about": "“SACCHARIDE SENSING SYSTEMS” (CARBOMETRICS LIMITED, priority 2022, published 2025)",
  "assay": "Fluorescent solution phase glucose responsive assay (pH 7.4, 298 K)",
  "conditions": "medium B, Ex 470 nm, Emmax 520 nm",
  "protocol": "Fluorescence spectroscopy was performed on either a HORIBA Duetta or BMG Labtech CLARIOstar plus plate reader. Emission spectra were obtained using the appropriate excitation wavelength and at a temperature of either 298 or 310 K and at pH 7.4 unless otherwise stated. Data collection and analysis were performed using EzSpec software by HORIBA or CLARIOstar MARS software by BMG Labtech. Further analysis and processing were performed in Microsoft Excel.\nA solution of GBM and FIM at the required concentrations were created in the appropriate media. The emission spectrum of the assay was then acquired by exciting at the designated excitation wavelength to obtain the baseline emission intensity for the assay. Aliquots of 2 M D-glucose (in the same media) were then added to give the required final glucose concentrations (e.g. 15 μL of 2 M D-glucose in 3 mL gives a final D-glucose concentration of 10 mM) and the assay allowed to reach equilibration. The emission spectra were collected after each addition of D-glucose and compared to the original baseline emission, monitoring at the typical emission maximum (Emmax), and the percentage increase or decrease recorded. Emission spectra acquired on either a Horiba Duetta fluorometer or Clariostar plus plate reader.\nThe glucose responsive fluorescence emission for different combinations of glucose binding molecules (GBM) and fluorescent inhibitor molecules (FIM) at various concentrations and in various media was tested as described above. All results obtained at pH 7.4 and 298 K unless otherwise stated.\nAll results obtained at pH 7.4 and 298 K unless otherwise stated.\nTable 4 provides the composition of the assay media used as the code assigned to each media as used in Tables 1 to 3.",
  "data": [
    {"smiles": "CC(C)(C)OC(=O)N[C@@H](Cc1cn(CCCC[C@@H](C(=O)Nc2ccc(CCO[C@@H]3O[C@H](CO)[C@@H](O)[C@H](O)[C@H]3O)cc2)[N+](C)(C)C)nn1)C(=O)NCCOCCOCCOCCn1cc(CNC(=O)c2ccc3c(c2)C(=O)OC32c3ccc(O)cc3Oc3cc(O)ccc32)nn1", "note": "[FIM32]", "values": [
      {"measurement": "Change in Emmax for FIM at a particular D-glucose concentration", "setting": "5 mM D-glucose, GBM15 10 μM, FIM 1 μM", "result": 170, "unit": "%"},
      {"measurement": "Change in Emmax for FIM at a particular D-glucose concentration", "setting": "5 mM D-glucose, GBM15 50 μM, FIM 0.5 μM", "result": 140, "unit": "%"},
      {"measurement": "Change in Emmax for FIM at a particular D-glucose concentration", "setting": "5 mM D-glucose, GBM15 50 μM, FIM 5 μM", "result": 110, "unit": "%"},
      {"measurement": "Change in Emmax for FIM at a particular D-glucose concentration", "setting": "5 mM D-glucose, GBM15 50 μM, FIM 10 μM", "result": 110, "unit": "%"},
      {"measurement": "Change in Emmax for FIM at a particular D-glucose concentration", "setting": "5 mM D-glucose, GBM15 100 μM, FIM 1 μM", "result": 95, "unit": "%"},
      {"measurement": "Change in Emmax for FIM at a particular D-glucose concentration", "setting": "5 mM D-glucose, GBM15 200 μM, FIM 2 μM", "result": 85, "unit": "%"},
      {"measurement": "Change in Emmax for FIM at a particular D-glucose concentration", "setting": "5 mM D-glucose, GBM15 200 μM, FIM 5 μM", "result": 50, "unit": "%"},
      {"measurement": "Change in Emmax for FIM at a particular D-glucose concentration", "setting": "5 mM D-glucose, GBM15 200 μM, FIM 10 μM", "result": 50, "unit": "%"},
      {"measurement": "Change in Emmax for FIM at a particular D-glucose concentration", "setting": "10 mM D-glucose, GBM15 10 μM, FIM 1 μM", "result": 190, "unit": "%"},
      {"measurement": "Change in Emmax for FIM at a particular D-glucose concentration", "setting": "10 mM D-glucose, GBM15 50 μM, FIM 0.5 μM", "result": 195, "unit": "%"},
      {"measurement": "Change in Emmax for FIM at a particular D-glucose concentration", "setting": "10 mM D-glucose, GBM15 50 μM, FIM 5 μM", "result": 155, "unit": "%"},
      {"measurement": "Change in Emmax for FIM at a particular D-glucose concentration", "setting": "10 mM D-glucose, GBM15 50 μM, FIM 10 μM", "result": 145, "unit": "%"},
      {"measurement": "Change in Emmax for FIM at a particular D-glucose concentration", "setting": "10 mM D-glucose, GBM15 100 μM, FIM 1 μM", "result": 135, "unit": "%"},
      {"measurement": "Change in Emmax for FIM at a particular D-glucose concentration", "setting": "10 mM D-glucose, GBM15 200 μM, FIM 2 μM", "result": 115, "unit": "%"},
      {"measurement": "Change in Emmax for FIM at a particular D-glucose concentration", "setting": "10 mM D-glucose, GBM15 200 μM, FIM 5 μM", "result": 85, "unit": "%"},
      {"measurement": "Change in Emmax for FIM at a particular D-glucose concentration", "setting": "10 mM D-glucose, GBM15 200 μM, FIM 10 μM", "result": 85, "unit": "%"},
      {"measurement": "Change in Emmax for FIM at a particular D-glucose concentration", "setting": "20 mM D-glucose, GBM15 10 μM, FIM 1 μM", "result": 200, "unit": "%"},
      {"measurement": "Change in Emmax for FIM at a particular D-glucose concentration", "setting": "20 mM D-glucose, GBM15 50 μM, FIM 0.5 μM", "result": 240, "unit": "%"},
      {"measurement": "Change in Emmax for FIM at a particular D-glucose concentration", "setting": "20 mM D-glucose, GBM15 50 μM, FIM 5 μM", "result": 185, "unit": "%"},
      {"measurement": "Change in Emmax for FIM at a particular D-glucose concentration", "setting": "20 mM D-glucose, GBM15 50 μM, FIM 10 μM", "result": 190, "unit": "%"},
      {"measurement": "Change in Emmax for FIM at a particular D-glucose concentration", "setting": "20 mM D-glucose, GBM15 100 μM, FIM 1 μM", "result": 160, "unit": "%"},
      {"measurement": "Change in Emmax for FIM at a particular D-glucose concentration", "setting": "20 mM D-glucose, GBM15 200 μM, FIM 2 μM", "result": 145, "unit": "%"},
      {"measurement": "Change in Emmax for FIM at a particular D-glucose concentration", "setting": "20 mM D-glucose, GBM15 200 μM, FIM 5 μM", "result": 125, "unit": "%"},
      {"measurement": "Change in Emmax for FIM at a particular D-glucose concentration", "setting": "20 mM D-glucose, GBM15 200 μM, FIM 10 μM", "result": 115, "unit": "%"},
      {"measurement": "Change in Emmax for FIM at a particular D-glucose concentration", "setting": "40 mM D-glucose, GBM15 10 μM, FIM 1 μM", "result": 220, "unit": "%"},
      {"measurement": "Change in Emmax for FIM at a particular D-glucose concentration", "setting": "40 mM D-glucose, GBM15 50 μM, FIM 0.5 μM", "result": 265, "unit": "%"},
      {"measurement": "Change in Emmax for FIM at a particular D-glucose concentration", "setting": "40 mM D-glucose, GBM15 50 μM, FIM 5 μM", "result": 205, "unit": "%"},
      {"measurement": "Change in Emmax for FIM at a particular D-glucose concentration", "setting": "40 mM D-glucose, GBM15 100 μM, FIM 1 μM", "result": 220, "unit": "%"},
      {"measurement": "Change in Emmax for FIM at a particular D-glucose concentration", "setting": "40 mM D-glucose, GBM15 200 μM, FIM 2 μM", "result": 200, "unit": "%"},
      {"measurement": "Change in Emmax for FIM at a particular D-glucose concentration", "setting": "40 mM D-glucose, GBM15 200 μM, FIM 5 μM", "result": 175, "unit": "%"},
      {"measurement": "Change in Emmax for FIM at a particular D-glucose concentration", "setting": "40 mM D-glucose, GBM15 200 μM, FIM 10 μM", "result": 130, "unit": "%"},
      {"measurement": "Change in Emmax for FIM at a particular D-glucose concentration", "setting": "60 mM D-glucose, GBM15 50 μM, FIM 0.5 μM", "result": 310, "unit": "%"},
      {"measurement": "Change in Emmax for FIM at a particular D-glucose concentration", "setting": "60 mM D-glucose, GBM15 50 μM, FIM 5 μM", "result": 225, "unit": "%"},
      {"measurement": "Change in Emmax for FIM at a particular D-glucose concentration", "setting": "60 mM D-glucose, GBM15 200 μM, FIM 2 μM", "result": 215, "unit": "%"},
      {"measurement": "Change in Emmax for FIM at a particular D-glucose concentration", "setting": "60 mM D-glucose, GBM15 200 μM, FIM 5 μM", "result": 190, "unit": "%"},
      {"measurement": "Change in Emmax for FIM at a particular D-glucose concentration", "setting": "60 mM D-glucose, GBM15 200 μM, FIM 10 μM", "result": 160, "unit": "%"},
      {"measurement": "Change in Emmax for FIM at a particular D-glucose concentration", "setting": "80 mM D-glucose, GBM15 50 μM, FIM 5 μM", "result": 235, "unit": "%"},
      {"measurement": "Change in Emmax for FIM at a particular D-glucose concentration", "setting": "80 mM D-glucose, GBM15 200 μM, FIM 5 μM", "result": 200, "unit": "%"},
      {"measurement": "Change in Emmax for FIM at a particular D-glucose concentration", "setting": "80 mM D-glucose, GBM15 200 μM, FIM 10 μM", "result": 170, "unit": "%"}
    ]},
    {"smiles": "O=C(CNC(=O)[C@H](Cc1cn(CCOCCOCCOCCOc2ccc(CCO[C@@H]3O[C@H](CO)[C@@H](O)[C@H](O)[C@H]3O)cc2)nn1)NC(=O)CCCC[C@@H]1SC[C@@H]2NCN[C@@H]21)Nc1ccc2c(c1)C(=O)OC21c2ccc(O)cc2Oc2cc(O)ccc21", "note": "[FIM35]", "values": [
      {"measurement": "Change in Emmax for FIM at a particular D-glucose concentration", "setting": "20 mM D-glucose, GBM29 50 μM, FIM 1 μM", "result": 60, "unit": "%"},
      {"measurement": "Change in Emmax for FIM at a particular D-glucose concentration", "setting": "20 mM D-glucose, GBM29 50 μM, FIM 1 μM, separate GBM and FIM components mixed with 0.25 molar equivalents of streptavidin tetramer prior to formulation of assay", "result": 40, "unit": "%"}
    ]},
    {"smiles": "C[N+](C)(C)[C@@H](CCCCNC(=O)[C@@H](N)CCCCn1cc(CNC(=O)c2ccc3c(c2)C2(OC3=O)c3ccc(N)c(S(=O)(=O)O)c3Oc3c2ccc(N)c3S(=O)(=O)O)nn1)C(=O)Nc1ccc(CCO[C@@H]2O[C@H](CO)[C@@H](O)[C@H](O)[C@H]2O)cc1", "note": "[FIM39]", "values": [
      {"measurement": "Change in Emmax for FIM at a particular D-glucose concentration", "setting": "5 mM D-glucose, GBM7 30 μM, FIM 1 μM", "result": 95, "unit": "%"},
      {"measurement": "Change in Emmax for FIM at a particular D-glucose concentration", "setting": "10 mM D-glucose, GBM7 30 μM, FIM 1 μM", "result": 115, "unit": "%"},
      {"measurement": "Change in Emmax for FIM at a particular D-glucose concentration", "setting": "20 mM D-glucose, GBM7 30 μM, FIM 1 μM", "result": 120, "unit": "%"}
    ]}
  ]
}
